How the values were obtained:
[1] = tested on: Human hair follicles in growth phase (anagen); assay: Human hair follicle growth assay; assay type: cell-based; details: for % Reduction of human hair follicle growth / Hair follicle length increase (mm) Treated: day 0 to day 7 (Table II)
Source text: Human Hair Follicle Growth Assay
Tissue source—Human skin was obtained from a plastic surgeon as a by-product of face-lift procedures. Immediately after removal, the skin was placed in Williams E medium containing antibiotics and refrigerated. The Williams E medium is a commercially obtained medium which has been formulated with essential nutrients for maintaining viability of tissues or cells such as of hair follicle in an in-vitro environment.
Hair Follicle Isolation and Culture—Human hair follicles in growth phase (anagen) were isolated from face-lift tissue (obtained from plastic surgeons) under dissecting scope using a scalpel and watchmakers forceps. The skin was sliced into thin strips exposing 2-3 rows of follicles that could readily be dissected. Follicles were placed into 0.5 ml William's E medium (Life Technologies, Gaithersburg, Md.) supplemented with 2 mM L-glutamine, 10 μg/ml insulin, 10 ng/ml hydrocortisone, 100 units of penicillin, 0.1 mg/ml streptomycin and 0.25 μg/ml amphotericin B. The follicles were incubated in 24-well plates (1 follicle/well) at 37° C. in an atmosphere of 5% CO2 and 95% air. Thiazolidinediones are dissolved into dimethyl sulfoxide as 100-fold stock solution. The control hair follicles were treated with dimethyl sulfoxide without thiazolidinedione. The follicles were photographed in the 24-well plates under the dissecting scope at a power of 10×. Typically, image recordings were made on day 0 (day follicles were placed in culture), and again on day 7. The length of Hair follicle was assessed using an image analysis software system (Jasc Image Robot). The growth of hair fiber was calculated by the subtracting the follicle length on day 0 from that determined on day 7.

[2] = tested on: Golden Syrian hamster flank organs (hair growth); assay: Golden Syrian hamster assay (hair mass assay); assay type: in vivo; details: topical, three weeks
Source text: Golden Syrian Hamster Assay
Male intact Golden Syrian hamsters are considered acceptable models for human beard hair growth in that they display oval shaped flank organs, one on each side, each about 8 mm. in major diameter. These organs produce fine light colored hair typical of the animal pelage found on the body. In response to androgens the flank organs produce dark coarse hair similar to male human beard hair. To evaluate the effectiveness of a composition in reducing hair growth, the flank organs of each of a group of hamsters are depilated by applying a thioglycolate based chemical depilatory (Surgex) and/or shaved. To one organ of each animal 10 μl. of vehicle alone once a day is applied, while to the other organ of each animal an equal amount of vehicle containing the ligand under evaluation is applied. After three weeks of topical applications (one application per day for five days a week), the flank organs are shaved and the amount of recovered hair (hair mass) from each is weighed. Percent-reduction of hair growth is calculated by subtracting the hair mass (mg) value of the test compound treated side from the hair mass value of the vehicle treated side; the delta value obtained is then divided by the hair mass value of the vehicle treated side, and the resultant number is multiplied by 100.
The above-described assay will be referred to herein as the “Golden Syrian hamster” assay or “hair mass” assay. Preferred compositions provide a reduction in hair growth of at least about 15% and more preferably at least about 35%, when tested in the Golden Syrian hamster assay.

CC1(COc2ccc(CC3SC(=O)NC3=O)cc2)CCCCC1 (centres unmarked) [Ciglitazone, ciglitazone]
% Reduction ([1]; 3 μM (Table III)): 38.2 ± 23.0% | Hair follicle length increase (mm) ([1]; 3 μM (Table III)): 1.34 ± 0.5 mm | % Reduction ([1]; 6 μM (Table III)): 75.1 ± 13.8% | Hair follicle length increase (mm) ([1]; 6 μM (Table III)): 0.54 ± 0.3 mm | % Reduction ([1]; 9 μM (Table III)): 90.8 ± 9.2% | Hair follicle length increase (mm) ([1]; 9 μM (Table III)): 0.2 ± 0.2 mm | % Reduction of human hair follicle growth ([1]; 20 μM): 87.5 ± 15.6% | Hair follicle length increase (mm) Treated ([1]; 20 μM): 0.19 ± 0.24 mm | % Reduction of hamster hair mass ([2]; dose 1.3%, vehicle A): 22.7 ± 5.8% | Treated (mg) hair mass ([2]; dose 1.3%, vehicle A): 2.78 ± 0.23 mg | % Reduction of hamster hair mass ([2]; dose 1.3%, vehicle A, listed as ciglitazone): 22.7%

CCc1ccc(CCOc2ccc(CC3SC(=O)NC3=O)cc2)nc1 (centres unmarked) [Pioglitazone, pioglitazone]
% Reduction ([1]; 15 μM (Table IV)): 30.2 ± 19.8% | Hair follicle length increase (mm) ([1]; 15 μM (Table IV)): 0.67 ± 0.19 mm | % Reduction ([1]; 30 μM (Table IV)): 76.0 ± 16.7% | Hair follicle length increase (mm) ([1]; 30 μM (Table IV)): 0.23 ± 0.16 mm | % Reduction ([1]; 45 μM (Table IV)): 89.6 ± 14.6% | Hair follicle length increase (mm) ([1]; 45 μM (Table IV)): 0.1 ± 0.14 mm | % Reduction of human hair follicle growth ([1]; 50 μM): 86.7 ± 6.2% | Hair follicle length increase (mm) Treated ([1]; 50 μM): 0.15 ± 0.07 mm | % Reduction of hamster hair mass ([2]; dose 5%, vehicle B): 47.7 ± 4.1% | Treated (mg) hair mass ([2]; dose 5%, vehicle B): 1.32 ± 0.06 mg | % Reduction of hamster hair mass ([2]; dose 5%, vehicle B, listed as pioglitazone): 47.7%

CN(CCOc1ccc(CC2SC(=O)NC2=O)cc1)c1ccccn1 (centres unmarked) [Rosiglitazone, rosiglitazone]
% Reduction ([1]; 20 μM (Table V)): 34.8 ± 20.6% | Hair follicle length increase (mm) ([1]; 20 μM (Table V)): 0.92 ± 0.29 mm | % Reduction ([1]; 40 μM (Table V)): 47.5 ± 10.6% | Hair follicle length increase (mm) ([1]; 40 μM (Table V)): 0.74 ± 0.15 mm | % Reduction ([1]; 60 μM (Table V)): 63.1 ± 14.1% | Hair follicle length increase (mm) ([1]; 60 μM (Table V)): 0.52 ± 0.2 mm | % Reduction of human hair follicle growth ([1]; 100 μM): 75.2 ± 16.5% | Hair follicle length increase (mm) Treated ([1]; 100 μM): 0.24 ± 0.16 mm | % Reduction of hamster hair mass ([2]; dose 10%, vehicle A): 40.0 ± 5.0% | Treated (mg) hair mass ([2]; dose 10%, vehicle A): 1.78 ± 0.71 mg | % Reduction of hamster hair mass ([2]; dose 10%, vehicle A, listed as rosiglitazone): 40%

Cc1c(C)c2c(c(C)c1O)CCC(C)(COc1ccc(CC3SC(=O)NC3=O)cc1)O2 (centres unmarked) [Troglitazone, troglitazone]
% Reduction of human hair follicle growth ([1]; 100 μM): 91.5 ± 6.2% | Hair follicle length increase (mm) Treated ([1]; 100 μM): 0.11 ± 0.08 mm

O=C1NC(=S)SC1=Cc1cc([N+](=O)[O-])ccc1Sc1ccccc1 [5-(5-nitro-2-phenylsulfanyl-benzylidene)-2-thioxo-thiazolidin-4-one]
% Reduction ([1]; 0.1 μM (Table VI)): 66.9 ± 15.2% | Hair follicle length increase (mm) ([1]; 0.1 μM (Table VI)): 0.37 ± 0.17 mm | % Reduction ([1]; 0.5 μM (Table VI)): 85.7 ± 15.2% | Hair follicle length increase (mm) ([1]; 0.5 μM (Table VI)): 0.16 ± 0.17 mm | % Reduction ([1]; 1.0 μM (Table VI)): 93.7 ± 7.1% | Hair follicle length increase (mm) ([1]; 1.0 μM (Table VI)): 0.07 ± 0.08 mm | % Reduction of human hair follicle growth ([1]; 10 μM): 94.6 ± 3.9% | Hair follicle length increase (mm) Treated ([1]; 10 μM): 0.11 ± 0.08 mm | Effect on human hair growth (in words) ([1]; human hair follicle growth assay, summary of Table II): can reduce human hair growth
